This assay deals with T1, T. cruzi CYP51 (Trypanosoma cruzi, UniProt Q7Z1V1).
T1 construct: had the first 21 residues upstream of K22 replaced with the fragment MAKKKKK; His6 (C); made in house
T1 sequence (Q7Z1V1 15-481, looked up, natural form): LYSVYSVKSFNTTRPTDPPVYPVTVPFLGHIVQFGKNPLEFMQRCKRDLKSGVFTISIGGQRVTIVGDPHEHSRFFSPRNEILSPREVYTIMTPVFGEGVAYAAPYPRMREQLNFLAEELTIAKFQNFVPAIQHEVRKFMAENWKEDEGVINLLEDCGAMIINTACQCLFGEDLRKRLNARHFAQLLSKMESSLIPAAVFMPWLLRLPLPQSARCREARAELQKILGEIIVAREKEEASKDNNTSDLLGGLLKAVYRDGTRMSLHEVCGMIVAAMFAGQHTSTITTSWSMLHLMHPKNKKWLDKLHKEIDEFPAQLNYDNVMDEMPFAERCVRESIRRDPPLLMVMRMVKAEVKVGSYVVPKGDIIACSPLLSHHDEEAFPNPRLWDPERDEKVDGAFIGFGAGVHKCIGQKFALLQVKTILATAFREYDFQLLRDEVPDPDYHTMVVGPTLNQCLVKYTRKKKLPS
Kind of assay: HTS spectral-mode binding screen, type II difference spectra scored 0-5. The following applies: spectral mode, four serial dilutions 2 µM to 12.5 µM, 2 µM CYP51.
As for `COc1ccc(-c2cc(C(=O)NCc3cccnc3)[nH]n2)cc1` [Compound 68], the HTS binding score is on record as 4.

`Cc1ccc2nc(NC(=O)C3CCN(S(=O)(=O)c4cccnc4)CC3)sc2c1` [Compound 152] gave an HTS binding score of 4.

Take `CC(C)(C)Nc1c(-c2ccncc2)nc2ccc(Br)cn12` [Compound 105]: the HTS binding score was 4.

`CCOC(=O)C1=C(C)N(C)C(C)=C(C(=O)OCC)C1c1ccncc1` [Compound 104] gave an HTS binding score of 5.

Regarding `COc1ccc(C(=O)C(OC(=O)c2ccncc2)c2ccccc2)cc1` (centres unmarked) [Compound 106], the HTS binding score worked out at 4.

Turning to `CCO/C(O)=C1/C(C)=NC2=C(C(=O)CC(c3ccccc3)C2)C1c1cccnc1` (centres unmarked) [Compound 136], the HTS binding score is 4.

With `O=P(Nc1cccnc1)(Oc1ccccc1Cl)Oc1ccccc1Cl` [Compound 138], the HTS binding score came to 5.

In the case of `COc1ccc(CNc2nc3ccccc3c3nc(-c4ccncc4)nn23)cc1` [Compound 132], the HTS binding score came to 5.

`O=C1C2(c3ccccc3)CN3CC1(c1ccccc1)CN(C2)C3c1cccnc1` (centres unmarked) [Compound 130] yielded an HTS binding score of 4.

`Nc1cc(NC(=O)c2cccc(Cl)c2)cc(Oc2cccnc2)c1` [Compound 100]: the HTS binding score is reported as 4.

As for `Cc1ccc(Cl)cc1-n1ncc2c(NCc3cccnc3)ncnc21` [Compound 112], the HTS binding score was 4.

`COc1ccc(-c2[nH]nc3c2C(c2cccnc2)NC3=O)cc1` (centres unmarked) [Compound 65] returned an HTS binding score of 4.

In the case of `COc1ccc(-c2noc(CSc3nnc(-c4ccncc4)n3CC(C)C)n2)cc1OC` [Compound 174], the HTS binding score came to 4.

With `COc1ccc(S(=O)(=O)NC(C)c2ccc(-n3ccnc3)cc2)c2ccccc12` (centres unmarked) [Compound 147], the HTS binding score is on record as 4.

`Cc1nnc(NCc2cccnc2)c2c1nnn2Cc1ccc(F)cc1` [Compound 109] gave an HTS binding score of 5.

For the molecule `CC1(C)CC(=O)C2=C(C1)c1c(ccc3ccccc13)NC2c1cccnc1` (centres unmarked) [Compound 114], the HTS binding score turned out to be 5.

Take `COc1cc2c(cc1OC)C(C(=O)N1CCC(Cc3ccccc3)CC1)C(c1cccnc1)N(C)C2=O` (centres unmarked) [Compound 185]: the HTS binding score came to 4.

With `N#CC1=C(N)Oc2nc(SCc3ccc(Cl)cc3)nc(N)c2C1c1cccnc1` (centres unmarked) [Compound 158], the HTS binding score was found to be 4.

`O=C1C(c2ccncc2)N(CCC2=CCCCC2)C(=O)CN1C1CCCCC1` (centres unmarked) [Compound 131] returned an HTS binding score of 4.

The molecule `Cc1[nH]c2ccccc2c1C(Nc1cccc(F)c1)c1cccnc1` (centres unmarked) [Compound 88] yielded an HTS binding score of 4.

`O=C(CCCSc1nc(-c2ccco2)cc(C(F)(F)F)n1)NCc1ccncc1` [Compound 156] came in with an HTS binding score of 4.

As for `CCN(Cc1ccncc1)/C(S)=N/CCc1ccccc1` [Compound 59], the HTS binding score is 5.

Molecule `COc1cc(OC)cc(C(=O)Nc2ccc(Cc3ccncc3)cc2)c1` [Compound 108] had an HTS binding score of 4.

Turning to `O=C(CN(c1ccc(Cl)cc1Cl)S(=O)(=O)c1ccccc1)NCc1ccncc1` [Compound 173], the HTS binding score came to 4.

`Cc1cc(C=C2C(=O)c3ccccc3C2=O)c(C)n1-c1ccncc1` [Compound 85]: the HTS binding score was 4.

With `Cn1c(=O)c2c(nc(NCc3cccnc3)n2Cc2cccc3ccccc23)n(C)c1=O` [Compound 161], the HTS binding score is on record as 4.

The molecule `CN1C(=O)c2[nH]nc(-c3ccc(F)cc3)c2C1c1cccnc1` (centres unmarked) [Compound 67] returned an HTS binding score of 5.

For `Cc1[nH]c2ccccc2c1C(Nc1ccc(F)cc1)c1ccncc1` (centres unmarked) [Compound 87], the HTS binding score is given as 4.

Regarding `O=C(NCc1cccnc1)c1ccc(COc2ccccc2Cl)o1` [Compound 103], the HTS binding score came to 4.

The molecule `COc1cc(OC)cc(-c2nc3n(n2)C(c2ccncc2)C2=C(O)CC(C)(C)CC2=N3)c1` (centres unmarked) [Compound 162] had an HTS binding score of 4.

For the molecule `OC1=C2C(=Nc3nc(-c4cccnc4)nn3C2c2ccc(Cl)cc2)CCC1` (centres unmarked) [Compound 128], the HTS binding score was found to be 4.

Consider `O=C(NCCc1ccncc1)Nc1ccc(Cl)c(Cl)c1` [Compound 70], for which the HTS binding score is 4.

On to `Cc1ccccc1CSCc1ccc(C(=O)NCc2cccnc2)o1` [Compound 113], for which the HTS binding score is recorded as 4.

For `CCC(C)(C)c1ccc(OCC(=O)Nc2ccncc2)cc1` [Compound 58], the HTS binding score came out at 4.

Consider `CCc1cc2c(cc3c(=O)n(CC(=O)NCc4cccnc4)ncn32)s1` [Compound 118], for which the HTS binding score amounted to 4.

On to `O=S(=O)(c1ccc(-c2csc(-c3cccnc3)n2)cc1)N1CCCC1` [Compound 121], for which the HTS binding score is recorded as 4.

Turning to `O=C(CCc1nc(-c2ccc(Cl)cc2)no1)Nc1cccnc1` [Compound 86], the HTS binding score is 4.

`COCc1cc(C)nc2c1C(=O)NC(c1cccnc1)N2Cc1ccccc1` (centres unmarked) [Compound 124]: the HTS binding score turned out to be 4.

`Cc1cc(Cl)ccc1OCCCC(=O)Nc1cccnc1` [Compound 62] had an HTS binding score of 4.

`CC1=C(C(=O)Nc2cccnc2)C(c2ccc(Cl)cc2)n2nc(CCCO)nc2N1` (centres unmarked) [Compound 160] came in with an HTS binding score of 4.

On to `N=C(NOC(=O)/C=C/c1ccccc1Cl)c1ccncc1` [Compound 60], for which the HTS binding score is listed as 4.

`COC(=O)C1=C(N)Oc2cc(C)oc(=O)c2C1c1cccnc1` (centres unmarked) [Compound 73] yielded an HTS binding score of 4.

As for `O=C(c1ccncc1)N(Cc1ccccc1)Cc1ccccc1` [Compound 61], the HTS binding score was found to be 4.

On to `CCCCNC(=O)c1cc(-c2ccncc2)nc2ccccc12` [Compound 63], for which the HTS binding score is 5.

In the case of `Cc1sc(NC(=O)c2ccco2)c(C(c2cccnc2)N2CCN(CCO)CC2)c1C` (centres unmarked) [Compound 168], the HTS binding score is given as 4.

In turn, `N=C(NOS(=O)(=O)c1ccc(Cl)cc1)c1ccncc1` [Compound 71] registered an HTS binding score of 5.

On to `O=C(/C(=C/c1ccc(F)cc1)n1cncn1)c1ccc(Cl)cc1Cl` [Compound 116], for which the HTS binding score came to 4.

Regarding `O=C(c1ccncc1)N(c1ccc2oc3c(c2c1)CCCC3)S(=O)(=O)c1cccs1` [Compound 167], the HTS binding score is 4.

In the case of `CCOC(=O)c1cc(-c2ccc(C)cc2)n(CCC(=O)NCc2cccnc2)c1C` [Compound 146], the HTS binding score came out at 5.

Consider `O=C(c1ccc(Cl)cc1Cl)C(c1cccnc1)C(O)C(Cl)(Cl)Cl` (centres unmarked) [Compound 151], for which the HTS binding score is on record as 5.

Molecule `COC(=O)C1=C(N)Oc2cc(C)n(CCCn3ccnc3)c(=O)c2C1c1ccc(Cl)cc1` (centres unmarked) [Compound 175] gave an HTS binding score of 4.

Molecule `Cc1ccc(S(=O)(=O)N(CC(=O)NCc2cccnc2)c2cccc(Br)c2)cc1` [Compound 180] came in with an HTS binding score of 4.

In the case of `CC1=C(C(=O)Nc2ccccc2)C(c2cccnc2)C(C#N)=C(SCC(=O)Nc2ccc(F)cc2)N1` (centres unmarked) [Compound 184], the HTS binding score was determined as 5.

Molecule `COc1cccc(C2C(C(=O)Nc3cccnc3)=C(C)Nc3nc(-c4cccs4)nn32)c1` (centres unmarked) [Compound 169] returned an HTS binding score of 4.

Molecule `O=C(NCCCn1ccnc1)C1CC(c2cccc(Br)c2)=NO1` (centres unmarked) [Compound 126] yielded an HTS binding score of 4.

In turn, `CCn1c(C(=O)NCc2cccnc2)cc2oc3ccccc3c21` [Compound 79] came in with an HTS binding score of 4.

The molecule `COc1ccccc1C(=O)O/N=C(\c1ccccc1)c1ccncc1` [Compound 89] registered an HTS binding score of 4.

With `COc1cccc(CNCc2cccnc2)c1OCc1ccc(Cl)cc1` [Compound 120], the HTS binding score was 4.

The molecule `N#Cc1nc(COc2ccccc2)oc1NCCCn1ccnc1` [Compound 81] came in with an HTS binding score of 4.

The molecule `COc1ccc(CNc2nc(-c3cccnc3)nn2S(=O)(=O)c2ccccc2)cc1` [Compound 154] showed an HTS binding score of 4.

`COc1cc(OC)cc(-c2cc3nc(C)c(CCC(=O)Nc4cccnc4)c(C)n3n2)c1` [Compound 163] had an HTS binding score of 4.

Molecule `COC(=O)c1sccc1NC(=O)CSCCc1ccncc1` [Compound 96] yielded an HTS binding score of 4.

With `CCCC/N=C(\S)N1CCn2cccc2C1c1cccnc1` (centres unmarked) [Compound 74], the HTS binding score turned out to be 4.

The molecule `O=C(NCc1cccnc1)/C(=C\c1cccc(Oc2ccccc2)c1)S(=O)(=O)c1ccccc1` [Compound 178] yielded an HTS binding score of 4.

For the molecule `O=C(CSc1nc(-c2ccc(F)cc2)cc(C(F)(F)F)n1)NCc1ccncc1` [Compound 155], the HTS binding score was found to be 4.

For `COc1ccc(-c2nc3n(n2)C(c2cccnc2)C2=C(O)CCCC2=N3)cc1` (centres unmarked) [Compound 122], the HTS binding score worked out at 5.

Molecule `O=C(CNCc1cccnc1)Nc1ccc(OC(F)(F)F)cc1` [Compound 82] came in with an HTS binding score of 4.

The molecule `CCOc1cc(S(=O)(=O)Nc2cccnc2)ccc1Cl` [Compound 72] gave an HTS binding score of 4.

Take `COc1ccc(-c2cc(C(F)(F)F)nc(NCc3cccnc3)n2)cc1OC` [Compound 137]: the HTS binding score turned out to be 4.

Consider `O=C(c1ccc(Cl)cc1)C(Oc1ccc(Cl)cc1)n1cncn1` (centres unmarked) [Compound 107], for which the HTS binding score stood at 5.

The molecule `COc1ccc(-c2nc3n(n2)C(c2cccs2)C(C(=O)Nc2cccnc2)=C(C)N3)cc1` (centres unmarked) [Compound 170] came in with an HTS binding score of 4.

With `Cc1cc(Cl)ccc1OCCCC(=O)NCc1cccnc1` [Compound 77], the HTS binding score was 4.

In the case of `CC(C)(C)NC(=O)c1cccc(NC(=O)c2ccc3c(c2)C(=O)N(Cc2cccnc2)C3=O)c1` [Compound 176], the HTS binding score is on record as 4.

With `Cc1cc(Cl)ccc1OCCCC(=O)NCc1ccncc1` [Compound 78], the HTS binding score is 4.

In turn, `C/C(=N\OC(=O)c1c(-c2ccccc2Cl)noc1C)c1ccncc1` [Compound 115] came in with an HTS binding score of 5.

Molecule `Cc1coc(NC(=O)c2sc3nc(-c4ccncc4)cc(C(F)(F)F)c3c2N)n1` [Compound 153] registered an HTS binding score of 4.

Molecule `COc1ccc(NC(=O)Nc2ccc(Cc3ccncc3)cc2)cc1` [Compound 91] came in with an HTS binding score of 5.

The values above are taken from publication PMC3409115, “Diverse Inhibitor Chemotypes Targeting Trypanosoma cruzi CYP51” (PLoS Neglected Tropical Diseases, 2012).
